In one data set the test system is human red blood cells. Kind of data set: Minimum hemolysis concentration (MHC) assay. Conditions: concentration causing 90% hemolysis of human red blood cells, 2 hours, 37° C. Type of data set: cell-based.
In another data set the test system is healthy mice. Description: Acute toxicity, single intravenous administration, lethality. Particulars: healthy mice, single intravenous 4 mg/kg. Type of data set: in vivo, mouse. On the procedure:
FIG. 8 is a graph depicting lethality in healthy mice resulting from single intravenous administrations in the doses indicated of AmB or C2′epiAmB.
In a separate experiment, acute toxicity was determined by single intravenous administration of AmB or C2′epiAmB to healthy mice, followed by monitoring for lethality.

Data set [1] deals with primary human renal proximal tubule epithelial cells. Kind of data set: WST-8 cell proliferation assay (MTC). Type of data set: cell-based. On the procedure: WST-8 Cell Proliferation Assays
Primary human renal proximal tubule epithelial cells (RPTECs) were purchased from ATCC (Manassas, Va.) and immediately cultured upon receipt. Complete growth media was prepared using renal epithelial cell basal medium (ATCC, PCS-400-030), renal epithelial cell growth kit (ATCC, PCS-400-040), and penicillin-streptomycin (10 units/mL and 10 μg/mL). Complete media was stored at 4° C. in the dark and used within 28 days. Primary RPTECs were grown in CO2 incubator at 37° C. with an atmosphere of 95% air/5% CO2.
WST-8 cell proliferation assay kit (Ser. No. 10/010,199) was purchased from Cayman Chemical Company (Ann Arbor, Mich.) and stored at −20° C. and used within 6 months of receipt. WST-8 reagent and electron mediator solution were thawed and mixed to prepare the WST-8 reagent solution. The solution was stored at −20° C. and used within one week.
A suspension of primary RPTECs in complete growth media was brought to a concentration of 1×10^5 cells/mL. A 96-well plate was seeded with 99 μL of the cell suspension and incubated at 37° C. with an atmosphere of 95% air/5% CO2 for 3 hours. Positive and negative controls were prepared by seeding with 100 μL of the cell suspension or 100 μL of the complete media. Compounds were prepared as 5 mM (AmB), 20 mM (C2′deOAmB), and 50 mM (C2′epiAmB) stock solutions in DMSO and serially diluted to the following concentrations with DMSO: 50000, 40000, 30000, 20000, 10000, 8000, 6000, 4000, 3000, 2000, 1500, 1000, 800, 600, 400, 300, 200, 100, 50, 25, 10, 5, 2.5, 1, 0.5, 0.25, and 0.1 μM. 1 μL aliquots of each solution were added to the 96-well plate in triplicate, with each column representing a different concentration of the test compound. The 96-well plate was incubated at 37° C. with an atmosphere of 95% air/5% CO2 for 24 hours. […] Following incubation, the 96-well plate was mixed in a shaking incubator at 200 rpm for 1 minute and absorbances were read at 450 nm using a Biotek H1 Synergy Hybrid Reader (Wanooski, Vt.). […]
(Tetrazolium assays rely on reduction of a dye to a coloured formazan, in cell work by metabolically active cells.)

The nature of data set [2]: ITC sterol binding, POPC LUVs containing 10% ergosterol. Particulars: net exotherm vs sterol-free LUVs. On the procedure:
(§1) Isothermal Titration calorimetry (ITC)
(§2) In an optimized isothermal titration calorimetry (ITC)-based assay, an aqueous solution of AmB was titrated with a suspension of large unilamellar vesicles (LUVs) comprised of only 1-palmitoyl-2-oleoyl-sn-glycero-3-phosphocholine (POPC), and the net exotherm was recorded. The titration was repeated using POPC LUVs containing 10% ergosterol. […] The titration was repeated using C2′epiAmB. […] The ITC assay was also conducted with cholesterol in place of ergosterol.
(§3) Experiments were performed using a NanoITC isothermal titration calorimeter (TA Instruments, Wilmington, Del.). Solutions of the compounds to be tested were prepared by diluting a 60.0 mM stock solution of the compound in DMSO to 600 μM with K buffer (5.0 mM HEPES/KHEPES, pH=7.4). The final DMSO concentration in the solution was 1% v/v. Large unilamellar vesicles comprised of only 1-palmitoyl-2-oleoyl-sn-glycero-3-phosphocholine (POPC LUVs) were prepared and phosphorus and ergosterol content was quantified as described below. The LUV solutions were diluted with buffer and DMSO to give a final phospholipid concentration of 12.0 mM in a 1% DMSO/K buffer solution. Immediately prior to use, all solutions were incubated at 37° C. for 30 minutes and degassed under vacuum at 37° C. for 10 minutes. The reference cell of the instrument (volume=0.190 mL) was filled with a solution of 1% v/v DMSO/K buffer.
Palmitoyl oleoyl phosphatidylcholine (POPC) was obtained as a 20 mg/mL solution in CHCl3 from Avanti Polar Lipids (Alabaster, Ala.) and was stored at −20° C. under an atmosphere of dry argon and used within 1 month. […]
Ergosterol content was determined spectrophotometrically. […] The solutions were then analyzed by UV/Vis spectroscopy and the concentration of ergosterol in solution was determined by the extinction coefficient of 10400 L mol^−1 cm^−1 at the UVmax of 282 nm and was compared to the concentration of phosphorus to determine the percent sterol content. The extinction coefficient was determined independently in the above ternary solvent system. […]

A further data set deals with renal cells. Type of data set: cell-based, human. The protocol:
Cells were imaged using an AMG (Bothell, Wash.) EVOS fl Microscope. Images were taken using transmitted light at 10× objective.
(18) Due to the limited solubility of AmB and its derivatives in the renal cell media, 80 μM is the highest concentration we were able to study. At higher concentrations, the aggregate blocks the light path of the plate reader, giving false high absorbance readings.

Data set [3] relates to yeast. Conditions: previously found; cited from earlier work.
For data set [4] the following is noted: previously found; cited from earlier work.
The conditions of data set [5]: previously found; cited from earlier work. This is another data set of the same source.
The nature of data set [6]: ITC sterol binding, POPC LUVs containing 10% cholesterol. Conditions: within the limits of the binding assay. The protocol:
as §1, §2, §3
Palmitoyl oleoyl phosphatidylcholine (POPC) was obtained as a 20 mg/mL solution in CHCl3 from Avanti Polar Lipids (Alabaster, Ala.) and was stored at −20° C. under an atmosphere of dry argon and used within 1 month. A 4 mg/mL solution of ergosterol in CHCl3 was prepared monthly and stored at 4° C. under an atmosphere of dry argon. […]
NanoAnalyze software (TA Instruments) was used for baseline determination and integration of the injection heats, and Microsoft Excel was used for subtraction of dilution heats and the calculation of overall heat evolved. […] By this method, the overall heat evolved during the experiment was calculated using the following formula: […]

For data set [7] the following is noted: Chol-containing POPC liposomes, 1 μM; cited from earlier work.
Data set [8] concerns yeast. Conditions: reported by Carreira and coworkers; cited from earlier work.

Each structure is given as a SMILES string.

These results are taken from patent US9738677B2, “Amphotericin B derivative with reduced toxicity” (priority 2014, dated 2017).

Experimental for human red blood cells: The protocol for the hemolysis assay was adapted from the report of Paquet and coworkers. […] Whole human blood (sodium heparin) was purchased from Bioreclamation LLC (Westbury, N.Y.) and stored at 4° C. and used within two days of receipt. To a 2.0 mL Eppendorf tube, 1 mL of whole human blood was added and centrifuged at 10,000 g for 2 minutes. The supernatant was removed and the erythrocyte pellet was washed with 1 mL of sterile saline and centrifuged at 10,000 g for 2 minutes. The saline wash was repeated for a total of three washes. The erythrocyte pellet was suspended in 1 mL of RBC buffer (10 mM NaH2PO4, 150 mM NaCl, 1 mM MgCl2, pH 7.4) to form the erythrocyte stock suspension.
Positive and negative controls were prepared by adding 1 μL of DMSO to MilliQ water or RBC buffer, respectively to 0.2 mL PCR tube. To each PCR tube, 0.63 μL of the erythrocyte stock suspension was added and mixed by inversion. The samples were incubated at 37° C. for 2 hours. The samples were mixed by inversion and centrifuged at 10,000 g for 2 minutes. 15 μL of the supernatant from each sample was added to a 384-well place. Absorbances were read at 540 nm using a Biotek H1 Synergy Hybrid Reader (Wanooski, Vt.). Experiments were performed in triplicate and the reported MHC represents an average of three experiments.
Percent hemolysis was determined according to the following equation:
[formula] […]

As to `C[C@@H]1[C@H](O)[C@@H](C)/C=C/C=C/C=C/C=C/C=C/C=C/C=C/[C@H](O[C@@H]2O[C@H](C)[C@@H](O)[C@H](N)[C@@H]2O)C[C@@H]2O[C@](O)(C[C@@H](O)C[C@@H](O)[C@H](O)CC[C@@H](O)C[C@@H](O)CC(=O)O[C@H]1C)C[C@H](O)[C@H]2C(=O)O` [AmB, amphotericin B], in the data set on human red blood cells, the “MHC (minimum hemolytic concentration)” value came out at 8.5 µM. Also, in the data set with healthy mice, the Lethality entry is reported as “died within seconds”. Also, the “MTC (minimum toxic concentration)” value in [1] (concentration causing 90% loss of cell viability, primary human RPTECs, 24 hours) amounted to 2.4 µM. The “Binding to ergosterol (in words)” value in data set [2] is “significant increase in net exotherm”.

For the molecule `C[C@@H]1[C@H](O)[C@@H](C)C=CC=CC=CC=CC=CC=CC=C[C@H](O)C[C@@H]2O[C@](O)(C[C@@H](O)C[C@@H](O)[C@H](O)CC[C@@H](O)C[C@@H](O)CC(=O)O[C@H]1C)C[C@H](O)[C@H]2C(=O)O` [AmdeB, amphoteronolide B], the “Visual evidence of toxicity in microscope images of renal cells” value in the data set on renal cells is on record as “no visual evidence of toxicity”. Also, the “Toxicity to yeast (previous work)” value with yeast [3] was “non-toxic to yeast”. Moreover, the “Capacity to bind ergosterol (previous work)” value in data set [4] is “eliminates its capacity to bind both ergosterol and cholesterol”. Besides, in data set [5], the “Capacity to bind cholesterol (previous work)” value was “eliminates its capacity to bind both ergosterol and cholesterol”.

Turning to `C[C@@H]1[C@H](O)[C@@H](C)/C=C/C=C/C=C/C=C/C=C/C=C/C=C/[C@H](O[C@H]2C[C@@H](N)[C@H](O)[C@@H](C)O2)C[C@@H]2O[C@](O)(C[C@@H](O)C[C@@H](O)[C@H](O)CC[C@@H](O)C[C@@H](O)CC(=O)O[C@H]1C)C[C@H](O)[C@H]2C(=O)O` [C2′deOAmB], the “Visual evidence of toxicity in microscope images of renal cells” value with renal cells was “no visual evidence of toxicity”. For the same molecule, the “Toxicity to primary human renal proximal tubule epithelial cells (in words)” value in data set [1] (up to limits of solubility) is reported as “no evidence of toxicity up to their limits of solubility”. In data set [6], the “Binding to cholesterol (in words)” value is reported as “do not bind cholesterol”.

Consider `COC(=O)[C@H]1[C@@H]2C[C@@H](O[C@@H]3O[C@H](C)[C@@H](O)[C@H](N)[C@H]3O)/C=C/C=C/C=C/C=C/C=C/C=C/C=C/[C@H](C)[C@@H](O)[C@@H](C)[C@H](C)OC(=O)C[C@H](O)C[C@H](O)CC[C@@H](O)[C@H](O)C[C@H](O)C[C@](O)(C[C@@H]1O)O2` [C2′epiAmE, C2′epiAmB methyl ester], for which, in data set [7], the “Efflux of potassium ions” value is listed as “caused efflux of potassium ions”. Moreover, the “Potency in yeast MIC assays compared to AmB” value with yeast [8] is listed as “equipotent to AmB”.
